# Test results as given in PubChem BioAssay AID1355 (Sanford-Burnham Center for Chemical Genomics, 2008).
# Activity calls are given as the source filed them.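 How the source made its calls: active means survival at least 30 percentage points above the stressed untreated control at any dose of the stressor; inactive means the rest.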
# Tested on: SW-1 melanoma, thapsigargin-induced death, ATPlite luminescence, 24 h
# Assay: ER stress cell death suppression in melanoma – SW-1 melanoma, ATP content luminescence, SAR follow-up (AID 1355)
# Settings: at 25 µM, stronger effect = higher value
# [1] = measured here: thapsigargin 7.5 uM
# [2] = measured here: thapsigargin 15 uM
Structure (SMILES),survival,survival [1] [%],survival [2] [%]
CCCOc1ccc(C2Nc3ccccc3NC3=C2C(=O)CC(c2ccc(OC)c(OC)c2)C3)cc1 (stereo not drawn),83%,71,3
CC1(C)CC(=O)C2=C(C1)Nc1ccccc1NC2c1ccc(-c2ccccc2)cc1 (stereo not drawn),66%,69,7
COc1ccc(C2CC(=O)C3=C(C2)Nc2ccccc2NC3c2cccc(Br)c2)cc1OC (stereo not drawn),67%,72,7
CSc1ccc(C2Nc3ccccc3NC3=C2C(=O)CC(c2ccccc2)C3)cc1 (stereo not drawn),74%,72,23
COc1ccc(C2CC(=O)C3=C(C2)Nc2ccccc2NC3c2ccccc2C(F)(F)F)cc1OC (stereo not drawn),98%,89,7
COc1ccc(C2CC(=O)C3=C(C2)Nc2ccccc2NC3c2cccc(Oc3ccccc3)c2)cc1OC (stereo not drawn),84%,77,18
CCOc1cc(C2Nc3ccccc3NC3=C2C(=O)CC(c2ccc(OC)cc2)C3)cc(Cl)c1O (stereo not drawn),30% (inactive),71,2
O=C1CC(c2ccccc2)CC2=C1C(c1c(F)cccc1Cl)Nc1ccccc1N2 (stereo not drawn),73%,72,3
COc1ccc(C2CC(=O)C3=C(C2)Nc2ccccc2NC3c2cc(C)ccc2C)cc1 (stereo not drawn),83%,72,9
CCOc1cccc(C2Nc3ccccc3NC3=C2C(=O)CC(c2ccc(OC)cc2)C3)c1 (stereo not drawn),33% (inactive),75,3
COc1ccc(C2CC(=O)C3=C(C2)Nc2ccccc2NC3c2cccc(C(F)(F)F)c2)cc1OC (stereo not drawn),86%,75,8
